Key:
[1] = tested on: mutant KRAS genes and wild-type KRAS genes in PANC-1; assay: Colony analysis of KRAS transcripts, PANC-1; assay type: cell-based; conditions: for MUT (number of mutant gene colonies) / WT (number of wild-type gene colonies): PANC-1, Table 4
[2] = tested on: mutant codon 12 KRAS gene and wild-type KRAS gene in LS180; assay: Colony PCR with allele specific primers, LS180; assay type: cell-based, human; conditions: for MUT (number of mutant gene colonies) / WT (number of wild-type gene colonies): LS180, 50 nM, 48 hours, colony PCR, Table 3
Procedure: Using primers that specifically amplify the GAT mutant gene of KRAS codon 12 (KRAS-MUT-F and KRAS-MUT-R) and the wild-type genes thereof (KRAS-WT-F and KRAS-WT-R), PCR was carried out directly on the Escherichia coli cells in the above-described white colonies. Whether each colony was a mutant KRAS gene or a wild-type KRAS gene was determined, depending on by which primer set the band of interest was amplified.
(§1) KR12, which was considered to specifically alkylate the KRAS mutant codon 12 gene, was administered to a heterozygous colon cancer cell line LS180 having both a mutant codon 12 KRAS gene and a wild-type KRAS gene. Forty-eight hours later, RNA was extracted, and the KRAS gene was then quantitatively amplified. The amplified gene was cloned into a plasmid, using a TA cloning kit, and the obtained plasmid was then introduced into competent cells. Thereafter, by performing blue-white selection using an LB/amp/IPTG/X-Gal plate, white colonies having inserts were picked up, and then, the presence or absence of a colon 12 mutation in each colony was examined by direct sequencing or by a colony PCR method.

[3] = tested on: mutant codon 12 KRAS gene and wild-type KRAS gene in LS180; assay: Colony sequence of KRAS transcripts, LS180; assay type: cell-based, human; conditions: for MUT (number of mutant gene colonies) / WT (number of wild-type gene colonies): LS180, 50 nM, 48 hours, colony sequence, Table 2; for number of mutant gene colonies relative to wild-type gene colonies: LS180, colony sequence method
Procedure: The cells (6.5×10^4) were seeded and were then cultured overnight. Thereafter, the cultured cells were treated with 50 nM KR12 or KR13, and were then cultured for 48 hours. After that, the cultured cells were harvested, and RNA was then extracted. For the extraction, RT-PCT was carried out using RNeasy mini kit (Qiagen, CA). Subsequently, using the extracted RNA as a template, cDNA for reverse transcription was prepared by employing Super Script VILO cDNA Synthesis Kit (Invitrogen, CA). Using the prepared cDNA as a template, PCR was carried out using the primers shown in SEQ ID NO: 7 and SEQ ID NO: 8. After a reaction had been carried out at 94° C. for 5 minutes, a reaction cycle of 94° C.-30 seconds, 55° C.-30 seconds, and 72° C.-30 seconds was repeated 20 times. Finally, an elongation reaction was carried out at 72° C. for 7 minutes. The PCR product was cloned using pGEM-T Easy vector (Promega, WI). Thereafter, Escherichia coli DH5α competent cells (Toyobo, Japan) were transformed with the clone, and the obtained transformant was then cultured at 37° C. overnight in an LB plate containing 50 μg/mL ampicillin, 1 mg of X-gal and 1 mg of isopropyl-β-thiogalactopyranoside. White colonies were identified by colony direct PCR. Regarding the PCR reaction cycle, after a reaction had been carried out at 94° C. for 5 minutes, a reaction cycle of 94° C.-30 seconds, 55° C.-30 seconds, and 72° C.-30 seconds was repeated 30 times. Finally, an elongation reaction was carried out at 72° C. for 7 minutes. The following primer set, namely, an M13-F1 primer and an M13-R1 primer were used for amplification. The sequence of the amplified DNA was decoded using a sequencing primer KRAS-2R, and the KRAS gene mutation site in each colony was then identified.
as §1

LS180 = assay: Cell growth of KR12-treated LS180 cells (FIG. 12B); assay type: cell-based, human; conditions: LS180, FIG. 12B
HT-29 = assay: Cytotoxicity test, WST-8 (cell counting kit-8), 48 hours; assay type: cell-based; conditions: Homo sapiens, HT-29, KRAS wild type, read-out: KR12 IC50
Procedure: (§2) Using colon cancer and pancreatic cancer cell lines, the cells were seeded in each well of a 96-well microplate, resulting in a cell density of 3000 to 5000 cells/well, and they were then cultured overnight. On the following day, the cells of each type were treated with KR12 recognizing a codon 12 mutation in concentrations of 1 nM, 10 nM, 30 nM, 100 nM, 300 nM, and 1 μM for 48 hours. Thereafter, a WST-8 reagent was added to each well, using cell counting kit-8, and the obtained mixture was then reacted for 2 hours. After that, the number of cells was counted at a wavelength of 450 nm according to a colorimetric analysis method using a microplate reader. The method of counting the number of cells comprises: 1) obtaining the mean value of the medium alone, 2) subtracting the mean value of the medium from each well, 3) obtaining the mean value of DMSO, 4) dividing the medium-subtracted value by the mean value of DMSO and then multiplying by 100, 5) obtaining the mean value of each treatment group and a standard deviation, and then preparing a graph. The calculation formula of IC50 is the following: IC50=10 (LOG (A/B)×(50−C)/(D−C)+LOG (B)), wherein A: a higher concentration of two concentrations sandwiching 50%, B: a lower concentration of two concentrations sandwiching 50%, C: inhibitory percentage at B, and D: inhibitory percentage at A.
(§3) The cells used in the aforementioned experiment are human cancer cell lines SW480, SW620, SNU-C2B, LS180, SW1463, DLD-1, HT29, and Caco-2 (purchased from European Collection of Cell Cultures (ECACC)).

SW480 = assay: as above; assay type: cell-based; conditions: SW480, KRAS G12V Homo, read-out: KR12 IC50
Procedure: as §2, §3

DLD-1 = assay: as above; assay type: cell-based; conditions: Homo sapiens, DLD-1, KRAS G13D Hetero, read-out: KR12 IC50
Procedure: as §2, §3

SNU-C2B = assay: as above; assay type: cell-based; conditions: Homo sapiens, KRAS G12D Hetero, read-out: KR12 IC50
Procedure: as §2, §3

SW620 = assay: as above; assay type: cell-based; conditions: SW-620, SW620, KRAS G12V Homo, read-out: KR12 IC50
Procedure: as §2, §3

SW1463 = assay: as above; assay type: cell-based; conditions: SW1463, KRAS G12C Homo, read-out: KR12 IC50
Procedure: as §2, §3

Caco-2 = assay: as above; assay type: cell-based; conditions: Homo sapiens, Caco-2, KRAS wild type, read-out: KR12 IC50
Procedure: as §2, §3

| Compound | MUT (number of mutant gene colonies) [1] | WT (number of wild-type gene colonies) [1] | MUT (number of mutant gene colonies) [2] | WT (number of wild-type gene colonies) [2] | MUT (number of mutant gene colonies) [3] | WT (number of wild-type gene colonies) [3] | number of mutant gene colonies relative to wild-type gene colonies [3] | expression levels of the mutant KRAS genes relative to wild-type KRAS genes ([1]; PANC-1, control group mutant 3-fold higher than wild-type) | expression levels of mutant cancer genes ([2]; LS180, colony PCR) | cell growth (LS180) | IC50 (HT-29) | IC50 (SW480) | IC50 (DLD-1) | IC50 (SNU-C2B) | IC50 (SW620) | IC50 (SW1463) | IC50 (Caco-2) |
| --- | --- | --- | --- | --- | --- | --- | --- | --- | --- | --- | --- | --- | --- | --- | --- | --- | --- |
| CC(=O)Nc1cn(C)c(C(=O)Nc2cn(C)c(C(=O)Nc3cc(C(=O)Nc4cn(C)c(C(=O)NCCC(=O)Nc5cc(C(=O)Nc6cn(C)c(C(=O)NCCCC(=O)Nc7cc(C(=O)Nc8cn(C)c(C(=O)Nc9cc(C(=O)NCCC(=O)Nc%10cc(C(=O)Nc%11ccc%12[nH]c(C(=O)N%13CC(CCl)c%14c%13cc(O)c%13ccccc%14%13)cc%12c%11)n(C)c%10)n(C)c9)n8)n(C)c7)n6)n(C)c5)n4)n(C)c3)n2)n1 (stereo not drawn) [KR13] | 18 | 8 | 13 | 14 | 22 | 15 | the number of mutant genes was rather increased |  |  |  |  |  |  |  |  |  |  |
| CC(=O)Nc1cn(C)c(C(=O)Nc2cc(C(=O)NCCC(=O)Nc3cn(C)c(C(=O)Nc4cn(C)c(C(=O)Nc5cc(C(=O)Nc6cn(C)c(C(=O)NCCCC(=O)Nc7cc(C(=O)Nc8cn(C)c(C(=O)NCCC(=O)Nc9cc(C(=O)Nc%10cc(C(=O)Nc%11ccc%12[nH]c(C(=O)N%13CC(CCl)c%14c%13cc(O)c%13ccccc%14%13)cc%12c%11)n(C)c%10)n(C)c9)n8)n(C)c7)n6)n(C)c5)n4)n3)n(C)c2)n1 (stereo not drawn) [KR12] | 24 | 21 | 11 | 27 | 14 | 29 | the number of mutant gene colonies was a half of the number of wild-type gene colonies | decreased to the same levels of the wild-type KRAS genes | the expression levels of mutant cancer genes were decreased | suppressed | 102 nM | 31 nM | 153 nM | 57 nM | 17 nM | 178 nM | 105 nM |

Source: US11185593B2, “Alkylating agent for alkylating target with driver oncogene mutation” (Chiba Prefecture, priority 2013, dated 2021)
